{"source": "paper PMC6271742", "about": "“A Novel Phage-Library-Selected Peptide Inhibits Human TNF-α Binding to Its Receptors” (Molecules, 2014)", "key": {"biotinylated hTNF-α": {"test_system": "biotinylated hTNF-α", "experiment": "Phage ELISA of selected clones", "type": "binding, human", "conditions": "streptavidin-coated 96-well plates coated with 20 nM biotinylated hTNF-α; phage-displayed peptide", "protocol": "Random 12-mer peptide phage library Ph.D.™-12 (New England Biolabs, Ipswich, MA, USA) was incubated with biotinylated hTNF-α. 10^11 phage, diluted in PBS (137 mM NaCl, 2 mM KCl, 10 mM Na2HPO4, 2 mM KH2PO4, pH 7.4) containing 0.1% (v/v) Tween 20 (PBST) and 3% bovine albumin (BSA) and incubated with 50 nM biotinylated hTNF-α o/n at 4 °C, was added to 100 μL Dynabeads-M280 coupled with streptavidin (Invitrogen¸ Waltham, MA, USA), saturated with 5% BSA in PBST, for 15 min at room temperature. After washing 10 times with PBST, bound phages were eluted with 5 μM adalimumab for 60 min at room temperature. The amplified phages were titered and underwent two further rounds of biopanning as described above, except that the concentration of biotinylated hTNF-α was diminished (20 nM and 10 nM for the second and third rounds of panning, respectively) and washing was performed using 0.5% (v/v) Tween 20.\nIn alternative to the selection described above we performed the following panning using SPR technology. Biotinylated hTNF-α was immobilized to the streptavidin (SA) sensor chip surface, obtaining final 2000 Resonance Units. […] For both pannings, the binding of selected clones to hTNF-α after the last round of panning was evaluated by phage ELISA in streptavidin-coated 96-well plates coated with 20 nM biotinylated hTNF-α."}, "murine TNF-α": {"test_system": "murine TNF-α", "experiment": "SPR specificity: binding of murine TNF-α to immobilized peptides", "conditions": "data not shown"}, "human TNF-α (hTNF-α)": {"molecular_target": "T1, human TNF-α (hTNF-α) (Homo sapiens, UniProt P01375)", "T1 construct": "peaks around 17,300, 34,700 and 52,100 Da, corresponding to monomeric, homodimeric and homotrimeric forms of hTNF-α; purchased Prospec", "T1 sequence (P01375 77-233 limits assumed)": "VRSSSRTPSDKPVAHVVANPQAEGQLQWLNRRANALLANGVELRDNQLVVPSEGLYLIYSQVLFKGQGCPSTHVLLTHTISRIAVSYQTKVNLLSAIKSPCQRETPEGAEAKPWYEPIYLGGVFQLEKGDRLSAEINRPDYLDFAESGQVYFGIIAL", "experiment": "SPR binding of hTNF-α to immobilized biotinylated peptides (Biacore T100)", "conditions": "hTNF-α 250 nM to 2 µM over immobilized peptide", "protocol": "hTNF-α was injected over linear and tetra-branched peptides previously immobilized on a Biacore T100 SA sensor chip. hTNF-α was flowed at concentrations ranging from 250 nM to 2 µM. To assess any non-specific binding, hTNF-α was also injected over an empty flow cell.\n(§1) All the experiments were performed on a Biacore T100 instrument (GE Healthcare, Milan, Italy); materials were purchased from GE Healthcare unless otherwise specified. Adalimumab was a kind gift from Galeazzi, University of Siena. Biotinylated linear and tetra-branched TNF-peptides were immobilized on a SA sensor chip. Briefly, peptides diluted in HBS-EP+ were injected for 60 s at a flow rate of 10 µL/min, obtaining 300 and 700 RUs respectively. Different concentrations of hTNF-α, from 250 nM to 2 µM in HBS-EP+, were injected for 180 s at a flow rate of 75 µL/min onto immobilized peptides. Association and dissociation kinetic rate constants (kon and koff) and the equilibrium dissociation constant Kd were calculated using BIAevaluation 3.0 software. […] Adalimumab monoclonal antibody (1 µg/mL in HBS-EP+ for 45 s at a flow rate of 10 µL/min) was immobilized on a CM5 sensor chip previously coated with Protein A (6500 RUs). Competition experiments were carried out injecting 10 nM hTNF-α for 180 s at flow rate of 30 µL/min with various concentrations (1, 10 and 25 µM) of tetra-branched TNF-peptide. […]"}, "[1]": {"test_system": "homotrimeric form of hTNF-α", "experiment": "MALDI-TOF MS analysis of hTNF-α oligomer dissociation", "type": "biochemical, human", "conditions": "5 min at room temperature, linear mode", "protocol": "To determine whether the anti-TNF-α peptide destabilized the oligomeric form of hTNF-α, we evaluated the distribution of monomeric, dimeric and trimeric hTNF-α by MS in the presence of increasing concentrations of anti-TNF-α peptide.\nThe anti-TNF-α peptide was incubated in a 3-fold or 10-fold molar excess with respect with hTNF-α at room temperature for 5 min. The dissociation of hTNF-α was analysed by mass spectrometry using a sinapinic acid matrix (Sigma-Aldrich) and a protein standard II (mass range ~10,000–70,000 Da, Brucker Daltonics) in an ultrafleXtreme MALDI-TOF/TOF mass spectrometer (Bruker Daltonics) in linear mode."}, "[2]": {"molecular_target": "T2, hTNF-α binding to adalimumab (Homo sapiens, UniProt P01375)", "T2 construct": "peaks around 17,300, 34,700 and 52,100 Da, corresponding to monomeric, homodimeric and homotrimeric forms of hTNF-α; purchased Prospec", "T2 sequence (P01375 77-233 limits assumed)": "as above", "experiment": "SPR inhibition of hTNF-α binding to captured adalimumab", "conditions": "25 µM peptide, 10 nM hTNF-α, adalimumab captured via Protein A on CM5 chip, read-out: inhibition of TNF-α binding to adalimumab", "protocol": "The anti-hTNF-α monoclonal antibody adalimumab was captured on a protein-A-coated sensor chip. 10 nM hTNF-α was injected over the immobilized antibody in the presence of different concentrations (25, 10 and 1 µM) of the tetra-branched anti-TNF-α peptide (Figure 3A).\nas §1"}}, "note": "Bridges are numbered along the chain shown (N, C = ends). Roman numbers before positions name the chains, in order. Where no end group is shown, it is not given here."}
{"substance": "HIHDDLLRYYGW", "values": [{"measurement": "phage ELISA result for clones expressing the sequence (in words)", "setting": "biotinylated hTNF-α", "value": "positive"}]}
{"substance": "I: HIHDDLLRYYGWKK-NH2 / II: HIHDDLLRYYGWK / III: HIHDDLLRYYGW / IV: HIHDDLLRYYGW (amide I:13-IV:C, I:14-II:C, II:13-III:C; C-terminus assumed) [tetra-branched peptide]", "values": [{"measurement": "binding for murine TNF-α (in words)", "setting": "murine TNF-α", "value": "did not show any binding for murine TNF-α"}, {"measurement": "hTNF-α binding (in words)", "setting": "human TNF-α (hTNF-α)", "value": "bound hTNF-α in a dose-dependent manner"}]}
{"substance": "I: HIHDDLLRYYGWKK-NH2 / II: HIHDDLLRYYGWK / III: HIHDDLLRYYGW / IV: HIHDDLLRYYGW (amide I:13-IV:C, I:14-II:C, II:13-III:C) [tetra-branched anti-TNF-α peptide]", "values": [{"measurement": "homo-dimeric hTNF-α peak in MS (in words)", "setting": "[1]; tenfold molar excess of peptide", "value": "the homo-dimeric form also disappeared"}, {"measurement": "homo-trimeric hTNF-α peak in MS (in words)", "setting": "[1]; threefold molar excess of peptide", "value": "The peak corresponding to the homo-trimeric form disappeared"}, {"measurement": "inhibition at 25 µM", "setting": "[2]", "value": "~80", "unit": "%"}]}
